Article PMC9313812, “The Pseudo‐Natural Product Rhonin Targets RHOGDI” (Angewandte Chemie (International Ed. in English), 2022)

How the values were obtained:
NIH/3T3 cells = experiment: Wound healing assay (cell migration); format: cell-based; details: 10 µM Rhonin; 2 µg/ml RHO inhibitor I; purmorphamine 2 µM
Protocol: Supplementary Figure S13. Influence of 10 µM Rhonin on cell migration in NIH/3T3 cells upon stimulation with purmorphamine (Purm, 2 µM). The RHO inhibitor I was used as a control. Cell migration was monitored by means of a wound healing assay. Data ar e representative of three independent experiments (n=3, N = 3), mean values ± SD. […]
40,000 x g for 30 min at 4°C. Supernatants were collected as cytoplasmic fraction and pellets were resuspended into a homogenization buffer (0.25 M sucrose, 20 mM Tris/HCl pH 7.4, 25 mM KCl, 5 mM MgCl2) and further centrifuged (2 h at 100,000 x g) using an iodixanol (OptiPrep, Axis Shield) gradient solution. Obtained fractions were used for immunoblotting.
NIH/3T3 cells were seeded in a 96 plate (10,000 cell per well/ plate name: Essen Bioscience NO 4379). NIH/3T3 cells were grown till 80% confluence and then serum starved (0 % FCS) for 24 h. […] Cell migration was monitored using IncuCyte ZOOM for a period of 48 h. The images were analyzed by the Incucyte Scratch Wound Analysis Software. […]
GTPase primary antibody (RAC1, CDC42 or RHOA) was added and the tubes and were incubated for 45 min at room temperature. […] Absorption was detected at 490 nm using a plate reader (Tecan Sparks).
Aqueous solubility of compounds was assessed by determination of the kinetic solubility of a test compound in aqueous buffer compared to a solution in organic solvent (acetonitrile). […]

RHOGDI1 = molecular target: T1, RHOGDI1 (Homo sapiens, UniProt P52565); experiment: Limited proteolysis mass spectrometry (LiP-MS); format: binding; details: 100 μM compound
T1 construct: GST; made in house; host or cells: E. coli (XL1-Blue / BL21)

[1] = test system: Alpl expression in C3H10T1/2 cells; experiment: RT-qPCR of Alpl mRNA; format: cell-based, mouse; details: 1.5 μM purmorphamine, 96 h
Protocol: Supplementary Figure S6 (related to Figure 5). Characterization of compound 7l (Rhonin).
(a) GLI-responsive reporter gene assay in SHH-LIGHT2 cells. (b) Influence of Rhonin on the expression of Alpl. C3H10T1/2 cells were treated with 1.5 µM purmorphamine and the compounds for 96 h prior to RT-qPCR to detect Alpl mRNA levels. Data were normalzed to Gapdh and Ap3d1 gene levels and are mean values (n = 3) ± SD. (c) Detection of cilia in NIH/3T3 cells. NIH/3T3 cells were cultured in serum reduced (0.5 % FCS) medium for 24 h to induce cilia formation, followed by a pre-treatment of cells with different concentrations of 7l or Vismodegib or DMSO as a control in serum reduced medium. […]
projections, after previous background subtraction. For quantification, cilia were identified and […]
Smoothened antibody were measured within these areas. […]
significances were assessed using an unpaired t-test (confidence interval of 95%) with the […]
replicates were performed and for each replicate at least 100 cilia per condition were analyzed.
Reverse transcription- quantitative PCR (RT-qPCR) […]
DNase I digestion step. The concentration of purified RNA was determined by means of the […]
QuantiTect Reverse Transcription Kit (Qiagen) according to the manufacturer’s protocol. […]
determined by means of quantitative RT-PCR using the QuantiFast SYBR Green PCR Kit […]

T1 sequence (P52565 16-204): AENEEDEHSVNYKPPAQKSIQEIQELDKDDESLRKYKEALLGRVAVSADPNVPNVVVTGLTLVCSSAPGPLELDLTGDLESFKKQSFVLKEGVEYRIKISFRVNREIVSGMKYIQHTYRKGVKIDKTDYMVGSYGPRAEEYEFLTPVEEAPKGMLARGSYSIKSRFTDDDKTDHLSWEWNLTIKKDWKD

In the case of COC(=O)C1(C(CC(=O)c2cccnc2)c2ccccc2)N=C(c2ccc(Br)cc2)C2C(=O)N(C)C(=O)C21 (stereo not drawn) [7l], the “Wound closure / cell migration (in words)” value (NIH/3T3 cells) is reported as “moderately inhibited wound closure”, the “Protection of RHOGDI1 peptides from proteinase K-mediated proteolysis (in words)” value (RHOGDI1) is reported as “several peptides in the 179–199 amino acid sequence were protected” and the “Expression of the alkaline phosphatase gene Alpl (in words)” value [1] is reported as “inhibited the expression of the alkaline phosphatase gene”.
